Measurements taken from PubChem BioAssay AID2060904 (Molecular Pharmacology Branch, DTP, NCI, 2025).

System: 349418-098-R-PDC complex spheroid viability
Assay: Anticancer human tumor 349418-098-R-PDC patient-derived lung adenocarcinoma cell line growth inhibition [RAS]
Details: for viability, T/C: stronger effect = lower value
In short: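 Agents were tested in combination matrices in half-log decrements from a top concentration at or near clinical Cmax (10 microM if undetermined). Targets were multi-cell spheroids of tumour lines plus HUVEC and MSC stromal cells.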

[1] = curve of first compound, second compound 0.0316 µM
[2] = curve of first compound, second compound 0.1 µM
[3] = curve of first compound, second compound 0.316 µM
[4] = curve of first compound, second compound 1 µM
[5] = curve of first compound, second compound 3.16 µM
[6] = curve of first compound, second compound 10 µM
[7] = second compound 0.0316 µM, first compound 0.0316 µM
[8] = second compound 0.0316 µM, first compound 0.1 µM
[9] = second compound 0.0316 µM, first compound 0.316 µM
[10] = second compound 0.0316 µM, first compound 1 µM
[11] = second compound 0.1 µM, first compound 0.0316 µM
[12] = second compound 0.1 µM, first compound 0.1 µM
[13] = second compound 0.1 µM, first compound 0.316 µM
[14] = second compound 0.1 µM, first compound 1 µM
[15] = second compound 0.316 µM, first compound 0.0316 µM
[16] = second compound 0.316 µM, first compound 0.1 µM
[17] = second compound 0.316 µM, first compound 0.316 µM
[18] = second compound 0.316 µM, first compound 1 µM
[19] = second compound 1 µM, first compound 0.0316 µM
[20] = second compound 1 µM, first compound 0.1 µM
[21] = second compound 1 µM, first compound 0.316 µM
[22] = second compound 1 µM, first compound 1 µM
[23] = second compound 3.16 µM, first compound 0.0316 µM
[24] = second compound 3.16 µM, first compound 0.1 µM
[25] = second compound 3.16 µM, first compound 0.316 µM
[26] = second compound 3.16 µM, first compound 1 µM
[27] = second compound 10 µM, first compound 0.0316 µM
[28] = second compound 10 µM, first compound 0.1 µM
[29] = second compound 10 µM, first compound 0.316 µM
[30] = second compound 10 µM, first compound 1 µM
[31] = second compound 0.0316 µM, first compound 0.00316 µM
[32] = second compound 0.0316 µM, first compound 0.01 µM
[33] = second compound 0.1 µM, first compound 0.00316 µM
[34] = second compound 0.1 µM, first compound 0.01 µM
[35] = second compound 0.316 µM, first compound 0.00316 µM
[36] = second compound 0.316 µM, first compound 0.01 µM
[37] = second compound 1 µM, first compound 0.00316 µM
[38] = second compound 1 µM, first compound 0.01 µM
[39] = second compound 3.16 µM, first compound 0.00316 µM
[40] = second compound 3.16 µM, first compound 0.01 µM
[41] = second compound 10 µM, first compound 0.00316 µM
[42] = second compound 10 µM, first compound 0.01 µM
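Also: spheroids exposed to compound for seven days before viability readout.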

CCn1c(-c2cccnc2C(C)OC)c2c3cc(ccc31)N1CCOC(CC(NC(=O)C(C(C)C)N(C)C(=O)C3(F)CCN(C(=O)C#CC(C)(C)N(C)C)CC3)C(=O)N3CCCC(N3)C(=O)OCC(C)(C)C2)C1 (stereo not drawn)
viability, T/C (compound 0.003 µM): 111% [middle of 8 runs] | IC50 (compound alone, run of 05/20/2024): > 300 nM

Cc1nc(N2CCC3(CC2)COC(C)C3N)c(CO)nc1Sc1ccnc(N)c1Cl (stereo not drawn) + C#Cc1c(F)ccc2cc(O)cc(-c3ncc4c(N5CC6CCC(C5)N6)nc(OCC56CCCN5CC(F)C6)nc4c3F)c12
IC50 [1]: > 10000 nM | IC50 [2]: > 10000 nM | IC50 [3]: > 10000 nM | IC50 [4]: > 10000 nM | IC50 [5]: > 10000 nM | IC50 [6]: > 10000 nM | viability, T/C [7]: 102% | viability, T/C [8]: 108% | viability, T/C [9]: 105% | viability, T/C [10]: 63.1% | viability, T/C (second compound 0.0316 µM, first compound 3.16 µM): 86% | viability, T/C (second compound 0.0316 µM, first compound 10 µM): 71.2% | viability, T/C [11]: 112% | viability, T/C [12]: 90.8% | viability, T/C [13]: 98.2% | viability, T/C [14]: 88.8% | viability, T/C (second compound 0.1 µM, first compound 3.16 µM): 108% | viability, T/C (second compound 0.1 µM, first compound 10 µM): 86% | viability, T/C [15]: 94.3% | viability, T/C [16]: 88% | viability, T/C [17]: 101% | viability, T/C [18]: 104% | viability, T/C (second compound 0.316 µM, first compound 3.16 µM): 104% | viability, T/C (second compound 0.316 µM, first compound 10 µM): 67.3% | viability, T/C [19]: 89.4% | viability, T/C [20]: 94.6% | viability, T/C [21]: 87% | viability, T/C [22]: 83.2% | viability, T/C (second compound 1 µM, first compound 3.16 µM): 111% | viability, T/C (second compound 1 µM, first compound 10 µM): 71.9% | viability, T/C [23]: 59.6% | viability, T/C [24]: 108% | viability, T/C [25]: 101% | viability, T/C [26]: 62.2% | viability, T/C (second compound 3.16 µM, first compound 3.16 µM): 114% | viability, T/C (second compound 3.16 µM, first compound 10 µM): 80.3% | viability, T/C [27]: 75.4% | viability, T/C [28]: 43.9% | viability, T/C [29]: 70.3% | viability, T/C [30]: 74.1% | viability, T/C (second compound 10 µM, first compound 3.16 µM): 73% | viability, T/C (second compound 10 µM, first compound 10 µM): 77%

CC(C)n1nc(-c2ccc3oc(N)nc3c2)c2c(N)ncnc21 + C#Cc1c(F)ccc2cc(O)cc(-c3ncc4c(N5CC6CCC(C5)N6)nc(OCC56CCCN5CC(F)C6)nc4c3F)c12
IC50 [1]: 5.82 nM | IC50 [2]: 3.71 nM | IC50 [3]: 5.3 nM | IC50 [4]: 6.59 nM | IC50 [5]: 3.7 nM | IC50 [6]: 1.58 nM | viability, T/C (second compound 0.0316 µM, first compound 0.000316 µM): 98.7% | viability, T/C (second compound 0.0316 µM, first compound 0.001 µM): 132% | viability, T/C [31]: 90.5% | viability, T/C [32]: 15.3% | viability, T/C [7]: 10.9% | viability, T/C [8]: 10.4% | viability, T/C (second compound 0.1 µM, first compound 0.000316 µM): 67.8% | viability, T/C (second compound 0.1 µM, first compound 0.001 µM): 123% | viability, T/C [33]: 56% | viability, T/C [34]: 19.4% | viability, T/C [11]: 10.4% | viability, T/C [12]: 9% | viability, T/C (second compound 0.316 µM, first compound 0.000316 µM): 87.8% | viability, T/C (second compound 0.316 µM, first compound 0.001 µM): 114% | viability, T/C [35]: 73.9% | viability, T/C [36]: 20.5% | viability, T/C [15]: 8.95% | viability, T/C [16]: 8.66% | viability, T/C (second compound 1 µM, first compound 0.000316 µM): 74.8% | viability, T/C (second compound 1 µM, first compound 0.001 µM): 111% | viability, T/C [37]: 85.9% | viability, T/C [38]: 29.2% | viability, T/C [19]: 8.08% | viability, T/C [20]: 9.16% | viability, T/C (second compound 3.16 µM, first compound 0.000316 µM): 109% | viability, T/C (second compound 3.16 µM, first compound 0.001 µM): 104% | viability, T/C [39]: 48.4% | viability, T/C [40]: 30.2% | viability, T/C [23]: 9.48% | viability, T/C [24]: 8.95% | viability, T/C (second compound 10 µM, first compound 0.000316 µM): 56.1% | viability, T/C (second compound 10 µM, first compound 0.001 µM): 72% | viability, T/C [41]: 28.5% | viability, T/C [42]: 10.7% | viability, T/C [27]: 6.47% | viability, T/C [28]: 4.1%

Nc1ccn(C2OC(CO)C(O)C2(F)F)c(=O)n1 (stereo not drawn) + C#Cc1c(F)ccc2cc(O)cc(-c3ncc4c(N5CC6CCC(C5)N6)nc(OCC56CCCN5CC(F)C6)nc4c3F)c12
IC50 [1]: < 3.16 nM | IC50 [2]: < 3.16 nM | IC50 [3]: < 3.16 nM | IC50 [4]: < 3.16 nM | IC50 [5]: < 3.16 nM | IC50 [6]: < 3.16 nM | viability, T/C [31]: 22.7% | viability, T/C [32]: 7.34% | viability, T/C [7]: 6.68% | viability, T/C [8]: 6.34% | viability, T/C [9]: 4.77% | viability, T/C [10]: 5.69% | viability, T/C [33]: 22.5% | viability, T/C [34]: 6.75% | viability, T/C [11]: 6.72% | viability, T/C [12]: 5.71% | viability, T/C [13]: 5.49% | viability, T/C [14]: 4.87% | viability, T/C [35]: 22.3% | viability, T/C [36]: 7.7% | viability, T/C [15]: 6.8% | viability, T/C [16]: 6.21% | viability, T/C [17]: 6.34% | viability, T/C [18]: 5.58% | viability, T/C [37]: 21.2% | viability, T/C [38]: 7.84% | viability, T/C [19]: 5.78% | viability, T/C [20]: 6.95% | viability, T/C [21]: 6.05% | viability, T/C [22]: 5.2% | viability, T/C [39]: 18.1% | viability, T/C [40]: 9.18% | viability, T/C [23]: 6.71% | viability, T/C [24]: 7.51% | viability, T/C [25]: 7.89% | viability, T/C [26]: 6.18% | viability, T/C [41]: 16% | viability, T/C [42]: 3.49% | viability, T/C [27]: 5.23% | viability, T/C [28]: 3.11% | viability, T/C [29]: 5.48% | viability, T/C [30]: 4.28%
